Reference: ChEMBL document CHEMBL1201862, “PubChem BioAssay data set” (2004)
Values joined by “and” are separate entries in the source; they are usually repeats but may differ in a detail not shown here. Equal entries are not always repeated. Active and inactive are the calls of the source.

Legend:
[1] = biological target: Lysosomal acid glucosylceramidase (Homo sapiens, UniProt P04062); assay: Dose response cell-based high throughput screening assay to identify enhancers of beta-glucosidase activity. [Related pubchem assays: 784 ]; type: functional
[2] = THP-1 cell cytotoxicity, dose response, cytotoxicity control for non-replicating M. tuberculosis project (AID 489025); type: functional
[3] = biological target: Serine/threonine-protein phosphatase (Homo sapiens, UniProt Q9BPW0); assay: Counterscreen for inhibitors of PP1: fluorescence-based biochemical high throughput dose response assay to identify inhibitors of Protein Phosphatase 5 (PP5). [Related pubchem assays: 2034 (Summary (PP5 inhibitors)), 1987 (PP5 inhibitors in singlate), 2235 (PP1 inhibitors in singlate)]
[4] = cells; type: functional
[5] = HIV-1 Vif–A3G interaction blockers – biochemical, TR-FRET, GST-Vif 1-94, biotin-A3G peptide, dose response retest, primary screen (AID 1117319); type: functional;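 note: TR-FRET signal of purified GST-Vif binding a biotinylated A3G peptide; inhibitors lower the FRET signal by blocking Vif and A3G binding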
[6] = biological target: T1, SUMO-activating enzyme (Homo sapiens, UniProt Q9UBT2); assay: blockers of UBC9-mediated SUMO conjugation – biochemical, AlphaScreen, SUMOylation inhibitor project, confirmation (AID 2018); type: functional
[7] = biological target: Serine/threonine-protein phosphatase PP1-alpha catalytic subunit (Homo sapiens, UniProt P62136); assay: inhibition of protein phosphatase 1 activity – biochemical, fluorescence, dose response (AID 2403);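 note: phosphatase turnover of OMFP into fluorescent 3-O-methylfluorescein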
[8] = viability loss in THP-1 monocytes – THP-1 cells, cytotoxicity control for Vif-APOBEC3G degradation inhibitor project, dose response (AID 1117359); type: functional; conditions: THP-1
[9] = biological target: T1, SUMO-activating enzyme; assay: blockers of SAE1/SAE2–UBC9 SUMO transfer – biochemical, HTRF, uHTS, primary screen (AID 2006); type: protein-complex assay
[10] = Vero E6 cell cytotoxicity, dose response, cytotoxicity control for non-replicating M. tuberculosis project, secondary assay (AID 492998); type: functional, VeroE6; conditions: Vero C1008
[11] = tested on: Staphylococcus aureus; assay: Inhibitors of Bacterial Quorum Sensing Structure Activity Relationship (SAR) Analysis: Dose Response Assay. [Related pubchem assays: 700, 527 ]; type: functional, organism-based
[12] = biological target: Cytochrome P450 3A4 (Homo sapiens, UniProt P08684); conditions: Potency;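 note: confirmatory qHTS run detecting inhibitors and substrates of CYP3A4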
[13] = biological target: Cytochrome P450 2C9 (Homo sapiens, UniProt P11712); conditions: Potency
[14] = biological target: T2, Eukaryotic translation initiation factor 2-alpha kinase 3 (Homo sapiens, UniProt Q9NZJ5); assay: Dose response cell-based high-throughput screening assay to measure PERK inhibition. [Related pubchem assays: 1416 ]; type: functional
[15] = biological target: T2, Eukaryotic translation initiation factor 2-alpha kinase 3; assay: Counterscreen assay for PERK inhibitors: Dose response cell-based high throughput screening assay to measure inhibition of PERK at 6 hours. [Related pubchem assays: 1522, 1416 ]; type: functional
[16] = biological target: T3, Tyrosine-protein phosphatase non-receptor type 7 (Homo sapiens, UniProt P35236); type: functional
T3 sequence (P35236 whole entry): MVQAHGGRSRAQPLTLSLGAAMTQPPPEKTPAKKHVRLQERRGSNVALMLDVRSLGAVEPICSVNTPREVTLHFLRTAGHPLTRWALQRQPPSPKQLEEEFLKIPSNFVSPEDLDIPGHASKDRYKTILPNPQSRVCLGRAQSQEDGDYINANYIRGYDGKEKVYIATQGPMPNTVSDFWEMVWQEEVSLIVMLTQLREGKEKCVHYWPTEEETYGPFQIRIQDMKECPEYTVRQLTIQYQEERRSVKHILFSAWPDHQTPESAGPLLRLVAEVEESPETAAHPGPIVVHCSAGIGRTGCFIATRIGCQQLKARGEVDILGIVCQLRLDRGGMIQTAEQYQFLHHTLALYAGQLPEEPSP

[17] = biological target: Heat shock 70 kDa protein 1A (Homo sapiens, UniProt P0DMV8); assay: inhibition of Hsp70 binding activity – biochemical, fluorescence polarization, SAR follow-up (AID 1072)
[18] = biological target: T4, Voltage-gated N-type calcium channel alpha-1B subunit/Amyloid beta A4 precursor protein-binding family A member 1 (Homo sapiens, UniProt Q00975+Q02410); type: protein assay
[19] = biological target: NS3 (Hepatitis C virus, UniProt A3EZJ3); assay: PubChem AID 2173; parameters: species or system Hepacivirus hominis
[20] = biological target: T5, Dual specificity protein phosphatase 6 (Rattus norvegicus, UniProt Q64346); type: functional
T5 sequence (Q64346 whole entry): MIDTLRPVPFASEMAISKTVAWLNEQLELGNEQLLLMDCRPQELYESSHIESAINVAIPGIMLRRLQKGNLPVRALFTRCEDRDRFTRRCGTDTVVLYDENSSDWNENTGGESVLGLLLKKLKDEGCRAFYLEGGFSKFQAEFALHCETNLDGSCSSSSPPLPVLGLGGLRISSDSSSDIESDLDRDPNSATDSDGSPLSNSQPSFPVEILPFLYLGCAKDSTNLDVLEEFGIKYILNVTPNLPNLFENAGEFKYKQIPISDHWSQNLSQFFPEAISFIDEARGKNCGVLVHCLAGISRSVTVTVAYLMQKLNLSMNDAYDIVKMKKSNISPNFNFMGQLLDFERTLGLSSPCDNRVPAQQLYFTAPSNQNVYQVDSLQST

[21] = CCR5-tropic HIV-1 fusion blockers – cell-based, CCR5-tropic Env, dose response (AID 2279); type: functional
[22] = biological target: T5, Dual specificity protein phosphatase 6
[23] = biological target: T6, Tyrosine-protein phosphatase non-receptor type 22 (Homo sapiens, UniProt Q9Y2R2); type: functional
T6 sequence (Q9Y2R2 whole entry): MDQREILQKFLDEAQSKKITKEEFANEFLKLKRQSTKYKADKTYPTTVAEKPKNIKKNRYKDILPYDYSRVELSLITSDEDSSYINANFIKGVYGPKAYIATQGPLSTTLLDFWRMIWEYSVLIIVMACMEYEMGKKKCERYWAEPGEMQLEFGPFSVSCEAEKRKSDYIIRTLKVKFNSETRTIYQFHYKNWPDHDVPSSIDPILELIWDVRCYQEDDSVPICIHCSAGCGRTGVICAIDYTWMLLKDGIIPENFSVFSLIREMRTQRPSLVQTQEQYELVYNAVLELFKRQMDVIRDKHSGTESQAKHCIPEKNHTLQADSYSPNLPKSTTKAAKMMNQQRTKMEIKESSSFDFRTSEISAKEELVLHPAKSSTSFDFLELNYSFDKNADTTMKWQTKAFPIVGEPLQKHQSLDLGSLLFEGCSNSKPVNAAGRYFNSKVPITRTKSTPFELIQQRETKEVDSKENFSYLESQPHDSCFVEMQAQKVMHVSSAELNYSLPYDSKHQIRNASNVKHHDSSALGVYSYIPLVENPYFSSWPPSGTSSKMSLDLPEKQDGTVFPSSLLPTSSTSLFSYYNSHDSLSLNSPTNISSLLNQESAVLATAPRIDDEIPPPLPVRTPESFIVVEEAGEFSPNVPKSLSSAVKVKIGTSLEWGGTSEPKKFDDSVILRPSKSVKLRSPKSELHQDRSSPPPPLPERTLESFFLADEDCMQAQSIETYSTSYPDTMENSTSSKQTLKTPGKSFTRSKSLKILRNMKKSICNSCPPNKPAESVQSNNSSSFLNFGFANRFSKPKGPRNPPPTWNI

[24] = biological target: T3, Tyrosine-protein phosphatase non-receptor type 7; type: functional; remark: listed apart in the source
[25] = biological target: Heat shock cognate 71 kDa protein (Homo sapiens, UniProt P11142); assay: In Vitro Hsc70 Dose Response Fluorescence Polarization Assay. [Related pubchem assays: 1072 ]
[26] = biological target: Estrogen receptor beta (Homo sapiens, UniProt Q92731); assay: blockers of SRC-3 recruitment to ERβ – biochemical, ELISA, streptavidin-HRP readout, orthogonal assay, confirmation (AID 1060)
[27] = viability loss in Vero cells – cytotoxicity control for Vif-APOBEC3G degradation inhibitor project, dose response (AID 1117358); type: functional; conditions: Vero
[28] = biological target: T5, Dual specificity protein phosphatase 6; assay: inhibition of rat DUSP6 enzyme activity – biochemical, in vitro, primary screen (AID 425)
[29] = biological target: T6, Tyrosine-protein phosphatase non-receptor type 22; type: functional; remark: listed apart in the source
[30] = biological target: T4, Voltage-gated N-type calcium channel alpha-1B subunit/Amyloid beta A4 precursor protein-binding family A member 1; type: protein assay; remark: listed apart in the source
[31] = biological target: Glyceraldehyde-3-phosphate dehydrogenase (Homo sapiens, UniProt P04406)
[32] = biological target: Genome polyprotein (Hepatitis C virus, UniProt Q2Q167); assay: disruption of hepatitis C core self-association – biochemical, TR-FRET, dose response (AID 2159); parameters: species or system Hepacivirus hominis;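 note: blocks dimerization of HCV core protein measured by TR-FRET between tagged core106 pairs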
[33] = biological target: Eukaryotic translation initiation factor 4E (Mus musculus, UniProt P63073); assay: blockers of eIF4G binding by eIF4E – biochemical, TR-FRET, dose response (AID 855); type: functional;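 note: potency for disrupting eIF4E binding to eIF4GI seen as loss of FRET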
[34] = Counterscreen for IDE inhibitors: Luminescence-based cell-based high throughput dose response assay to identify compounds that are cytotoxic to HEK cells. [Related pubchem assays: 434962 (Primary screen (IDE inhibitors in singlicate)), 449730 (Counterscreen (Cytotoxicity in triplicate)), 435028 (Confirmation (IDE inhibitors in triplicate)) …; type: functional; conditions: HEK293
[35] = mRNA 3' processing disruption, beta-gal signal increase – luminescence, S. cerevisiae SKY197-pL101, dose response (AID 2525); type: functional, cell-based
[36] = alpha-synuclein stem-loop luciferase translation blockers – H4 neuroglioma cells, luminescence, confirmation (AID 1988); type: functional, cell-based
[37] = biological target: Prothrombin (Homo sapiens, UniProt P00734); assay: Thrombin 1536 HTS Dose Response Confirmation. [Related pubchem assays: 1046 (Thrombin 1536 HTS; hits were confirmed in this assay)]; type: functional
[38] = Luminescence Cell-Based Dose Response HTS to Identify Inhibitors of 5'UTR Stem-Loop Driven Prion Protein mRNA Translation in H4 Neuroglioblastoma Cells. [Related pubchem assays: 1827 (Project Summary), 1813 (Primary HTS)]; type: functional
[39] = luciferase reporter signal suppression in cells – H4 neuroglioma cells, luminescence, dose response (AID 1990); type: functional, cell-based
[40] = biological target: T7, Alkaline phosphatase, tissue-nonspecific isozyme (Homo sapiens, UniProt P05186)
T7 sequence (P05186 whole entry): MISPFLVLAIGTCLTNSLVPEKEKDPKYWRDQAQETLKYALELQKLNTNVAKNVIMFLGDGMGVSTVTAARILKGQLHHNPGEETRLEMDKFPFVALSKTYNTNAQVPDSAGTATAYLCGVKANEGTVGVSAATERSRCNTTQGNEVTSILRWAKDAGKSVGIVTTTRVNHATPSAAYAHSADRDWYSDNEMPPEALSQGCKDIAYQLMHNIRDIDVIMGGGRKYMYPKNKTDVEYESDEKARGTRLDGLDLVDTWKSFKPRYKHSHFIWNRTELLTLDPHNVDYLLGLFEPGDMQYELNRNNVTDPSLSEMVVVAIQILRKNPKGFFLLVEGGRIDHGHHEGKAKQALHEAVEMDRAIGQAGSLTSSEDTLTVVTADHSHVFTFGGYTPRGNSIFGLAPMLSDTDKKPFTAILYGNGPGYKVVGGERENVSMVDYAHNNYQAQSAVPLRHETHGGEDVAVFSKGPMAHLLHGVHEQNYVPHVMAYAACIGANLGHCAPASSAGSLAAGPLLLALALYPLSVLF

T4 sequence (Q00975 whole entry): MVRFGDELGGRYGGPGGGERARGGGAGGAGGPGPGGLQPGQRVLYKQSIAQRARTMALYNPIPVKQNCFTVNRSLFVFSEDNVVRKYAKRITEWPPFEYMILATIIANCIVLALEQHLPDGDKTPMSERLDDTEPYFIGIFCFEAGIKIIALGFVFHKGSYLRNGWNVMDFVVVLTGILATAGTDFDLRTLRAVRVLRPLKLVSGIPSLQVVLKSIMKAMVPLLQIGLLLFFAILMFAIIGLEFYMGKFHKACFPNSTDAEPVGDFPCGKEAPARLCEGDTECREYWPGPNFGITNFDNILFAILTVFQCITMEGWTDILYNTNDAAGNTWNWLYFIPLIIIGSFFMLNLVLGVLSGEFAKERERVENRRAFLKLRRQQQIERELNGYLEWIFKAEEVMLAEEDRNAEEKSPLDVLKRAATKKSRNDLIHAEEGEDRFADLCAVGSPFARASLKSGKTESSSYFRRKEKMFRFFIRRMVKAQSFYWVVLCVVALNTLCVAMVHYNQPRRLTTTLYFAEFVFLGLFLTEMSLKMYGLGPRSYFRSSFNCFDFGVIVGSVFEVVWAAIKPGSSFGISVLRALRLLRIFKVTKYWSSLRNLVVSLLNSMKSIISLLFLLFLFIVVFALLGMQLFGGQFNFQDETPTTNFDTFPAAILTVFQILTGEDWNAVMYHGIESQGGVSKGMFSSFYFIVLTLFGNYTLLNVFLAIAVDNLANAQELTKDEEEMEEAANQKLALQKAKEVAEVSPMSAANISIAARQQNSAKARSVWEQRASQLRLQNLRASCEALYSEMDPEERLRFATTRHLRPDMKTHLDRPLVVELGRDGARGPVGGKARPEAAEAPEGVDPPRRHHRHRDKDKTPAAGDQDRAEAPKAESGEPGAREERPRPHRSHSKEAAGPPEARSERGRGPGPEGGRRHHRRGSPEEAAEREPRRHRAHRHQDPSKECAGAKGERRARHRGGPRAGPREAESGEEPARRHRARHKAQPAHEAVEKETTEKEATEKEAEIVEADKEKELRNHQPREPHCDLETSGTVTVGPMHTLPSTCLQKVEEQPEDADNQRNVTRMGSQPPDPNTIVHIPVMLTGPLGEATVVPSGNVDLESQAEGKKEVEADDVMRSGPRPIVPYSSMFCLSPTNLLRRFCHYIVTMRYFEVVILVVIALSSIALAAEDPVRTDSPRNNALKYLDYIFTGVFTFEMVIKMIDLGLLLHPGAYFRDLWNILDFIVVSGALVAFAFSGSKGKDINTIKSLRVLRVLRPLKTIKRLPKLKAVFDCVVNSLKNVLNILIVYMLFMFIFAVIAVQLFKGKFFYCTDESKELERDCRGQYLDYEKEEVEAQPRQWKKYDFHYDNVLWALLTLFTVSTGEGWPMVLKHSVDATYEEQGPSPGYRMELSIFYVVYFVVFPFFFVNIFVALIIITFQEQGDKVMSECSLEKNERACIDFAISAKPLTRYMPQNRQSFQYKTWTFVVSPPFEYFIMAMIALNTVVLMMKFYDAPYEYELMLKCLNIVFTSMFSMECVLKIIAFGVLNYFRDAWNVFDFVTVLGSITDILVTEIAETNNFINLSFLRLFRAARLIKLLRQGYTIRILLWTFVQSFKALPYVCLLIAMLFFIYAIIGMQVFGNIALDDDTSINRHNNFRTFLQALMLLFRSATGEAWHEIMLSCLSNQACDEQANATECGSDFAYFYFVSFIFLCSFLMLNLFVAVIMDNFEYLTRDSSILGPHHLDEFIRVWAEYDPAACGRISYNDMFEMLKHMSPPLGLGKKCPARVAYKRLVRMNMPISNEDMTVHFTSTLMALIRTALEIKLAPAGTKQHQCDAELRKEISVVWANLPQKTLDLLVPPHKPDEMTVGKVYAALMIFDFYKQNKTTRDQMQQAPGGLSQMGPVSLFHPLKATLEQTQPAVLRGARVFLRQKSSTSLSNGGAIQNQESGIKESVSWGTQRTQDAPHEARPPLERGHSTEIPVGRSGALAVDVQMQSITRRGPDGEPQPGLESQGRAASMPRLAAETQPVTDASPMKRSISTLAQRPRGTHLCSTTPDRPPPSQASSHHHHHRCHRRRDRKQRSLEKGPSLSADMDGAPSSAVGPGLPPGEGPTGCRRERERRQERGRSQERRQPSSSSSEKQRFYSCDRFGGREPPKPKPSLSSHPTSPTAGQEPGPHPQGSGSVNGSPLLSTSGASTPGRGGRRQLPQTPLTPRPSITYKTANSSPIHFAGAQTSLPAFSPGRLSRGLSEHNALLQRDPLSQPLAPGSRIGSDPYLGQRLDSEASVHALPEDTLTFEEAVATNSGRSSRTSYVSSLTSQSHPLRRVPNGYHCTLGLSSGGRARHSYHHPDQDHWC
T4 sequence (Q02410 whole entry): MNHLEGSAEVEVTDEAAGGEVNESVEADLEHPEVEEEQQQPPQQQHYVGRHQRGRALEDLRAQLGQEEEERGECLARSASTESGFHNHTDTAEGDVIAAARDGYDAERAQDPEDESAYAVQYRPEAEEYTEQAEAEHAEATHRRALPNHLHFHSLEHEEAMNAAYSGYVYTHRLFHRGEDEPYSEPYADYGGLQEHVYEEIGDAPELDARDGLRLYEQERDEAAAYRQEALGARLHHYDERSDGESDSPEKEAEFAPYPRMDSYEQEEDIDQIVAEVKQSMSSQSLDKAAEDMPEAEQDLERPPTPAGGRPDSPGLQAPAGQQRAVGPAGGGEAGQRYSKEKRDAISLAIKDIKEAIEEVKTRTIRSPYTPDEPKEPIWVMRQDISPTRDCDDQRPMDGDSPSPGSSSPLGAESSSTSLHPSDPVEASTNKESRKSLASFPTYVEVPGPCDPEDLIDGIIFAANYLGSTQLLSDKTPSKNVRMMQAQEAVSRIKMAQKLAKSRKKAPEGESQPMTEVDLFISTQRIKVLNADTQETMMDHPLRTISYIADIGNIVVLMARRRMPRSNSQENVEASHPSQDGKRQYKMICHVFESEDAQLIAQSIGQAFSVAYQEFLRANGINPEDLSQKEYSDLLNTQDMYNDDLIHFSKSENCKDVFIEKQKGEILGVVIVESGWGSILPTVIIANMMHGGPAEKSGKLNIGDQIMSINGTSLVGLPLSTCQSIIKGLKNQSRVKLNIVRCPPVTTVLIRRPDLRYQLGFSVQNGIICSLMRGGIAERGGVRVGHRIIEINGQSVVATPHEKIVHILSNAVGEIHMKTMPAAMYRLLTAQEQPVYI
T2 sequence (Q9NZJ5 whole entry): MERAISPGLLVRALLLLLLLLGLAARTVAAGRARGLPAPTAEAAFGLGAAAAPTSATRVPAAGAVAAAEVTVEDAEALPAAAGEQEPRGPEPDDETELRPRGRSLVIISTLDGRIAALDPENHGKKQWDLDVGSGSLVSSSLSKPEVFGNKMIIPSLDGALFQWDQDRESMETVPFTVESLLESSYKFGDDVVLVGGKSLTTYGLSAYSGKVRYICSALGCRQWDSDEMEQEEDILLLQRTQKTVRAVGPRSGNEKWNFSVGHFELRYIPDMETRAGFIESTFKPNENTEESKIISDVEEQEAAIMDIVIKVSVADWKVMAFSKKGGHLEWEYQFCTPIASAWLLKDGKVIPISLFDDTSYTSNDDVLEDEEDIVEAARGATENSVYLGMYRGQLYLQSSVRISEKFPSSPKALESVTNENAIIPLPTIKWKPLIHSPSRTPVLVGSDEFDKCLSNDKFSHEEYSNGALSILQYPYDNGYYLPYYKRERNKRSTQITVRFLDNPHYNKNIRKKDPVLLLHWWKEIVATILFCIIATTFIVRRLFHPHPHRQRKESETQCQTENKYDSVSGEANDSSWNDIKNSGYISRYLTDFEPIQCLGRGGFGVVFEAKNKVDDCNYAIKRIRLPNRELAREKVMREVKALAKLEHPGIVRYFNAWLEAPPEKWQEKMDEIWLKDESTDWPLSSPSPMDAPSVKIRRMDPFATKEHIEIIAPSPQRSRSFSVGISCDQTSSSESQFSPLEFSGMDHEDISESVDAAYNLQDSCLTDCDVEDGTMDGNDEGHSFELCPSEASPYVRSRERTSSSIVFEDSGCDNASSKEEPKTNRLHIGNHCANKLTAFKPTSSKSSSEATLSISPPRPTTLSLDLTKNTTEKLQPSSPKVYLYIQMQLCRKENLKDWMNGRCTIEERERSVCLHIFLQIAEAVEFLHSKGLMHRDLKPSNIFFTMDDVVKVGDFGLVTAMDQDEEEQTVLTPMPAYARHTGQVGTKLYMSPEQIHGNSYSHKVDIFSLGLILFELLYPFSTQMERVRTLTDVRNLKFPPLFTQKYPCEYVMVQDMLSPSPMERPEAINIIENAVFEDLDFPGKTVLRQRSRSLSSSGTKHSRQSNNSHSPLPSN
Sequence of Heat shock 70 kDa protein 1A (P0DMV8 whole entry): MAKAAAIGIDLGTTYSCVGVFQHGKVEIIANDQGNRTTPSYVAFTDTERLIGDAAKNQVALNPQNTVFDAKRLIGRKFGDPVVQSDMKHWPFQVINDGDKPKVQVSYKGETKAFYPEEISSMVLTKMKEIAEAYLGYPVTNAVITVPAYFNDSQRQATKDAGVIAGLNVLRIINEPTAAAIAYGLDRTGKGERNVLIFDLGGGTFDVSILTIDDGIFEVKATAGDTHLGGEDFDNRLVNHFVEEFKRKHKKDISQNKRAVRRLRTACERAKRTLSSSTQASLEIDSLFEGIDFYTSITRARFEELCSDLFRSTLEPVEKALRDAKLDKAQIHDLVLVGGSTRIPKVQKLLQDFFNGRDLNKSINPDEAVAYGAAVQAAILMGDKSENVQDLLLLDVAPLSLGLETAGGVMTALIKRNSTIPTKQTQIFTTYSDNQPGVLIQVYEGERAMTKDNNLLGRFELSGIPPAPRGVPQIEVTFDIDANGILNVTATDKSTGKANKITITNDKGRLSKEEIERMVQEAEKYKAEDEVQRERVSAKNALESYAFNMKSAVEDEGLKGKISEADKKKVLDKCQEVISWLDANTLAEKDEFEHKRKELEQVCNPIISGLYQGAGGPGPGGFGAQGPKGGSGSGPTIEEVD
Sequence of Genome polyprotein (Q2Q167 whole entry): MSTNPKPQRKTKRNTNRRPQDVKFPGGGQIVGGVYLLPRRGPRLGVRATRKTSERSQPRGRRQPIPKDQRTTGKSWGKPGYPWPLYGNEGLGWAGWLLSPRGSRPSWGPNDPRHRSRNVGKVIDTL

SMILES: CCC(Sc1nc(C)cc(O)n1)C(=O)Nc1nc2c(s1)CCCC2 (stereo not given)
- EC50 [1]: > 50 µM (not active)

SMILES: O=C1NC(=O)C(=Cc2ccc(-c3cc(Cl)ccc3Cl)[nH]2)C(=O)N1
- CC50 [2]: 23.1 µM (active)
- IC50 [3]: > 67 µM (not active)
- IC50 [4]: < 0.1 µM (active)
- IC50 [5]: > 100 µM (active)
- IC50 [6]: 11.6 µM (active)
- IC50 [7]: 5.6 µM (active)
- CC50 [8]: > 40 µM (active)
- IC50 [9]: 16.4 µM (active)
- CC50 [10]: > 20 µM (active)

SMILES: CSCCC(NC(=O)c1ccccc1)C(=O)OCC(=O)Nc1sc2c(c1C#N)CCCC2 (stereo not given)
- IC50 [11]: 0.44 µM (active)

SMILES: CC1(C)CCC[C@@]2(C)[C@@H]1CC[C@]1(C)OC(=O)C[C@@H]21
- AC50 [12]: 20 µM (inconclusive)
- AC50 [13]: 39.8 µM (inconclusive)

SMILES: COc1ccc(C(=O)NCC(=O)OC2CCCCC2=O)cc1 (stereo not given)
- EC50 [14]: > 55.7 µM (not active)
- EC50 [15]: > 55.7 µM (not active)

SMILES: O=C(O)C1Nc2c(O)cccc2C2C=CCC12 (stereo not given)
- IC50 [16]: 11.2 µM (active)
- IC50 [17]: 9.87 µM (active)
- IC50 [18]: 4.98 µM (active)
- IC50 [19]: 3.43 µM (active)
- IC50 [20]: 7.38 µM (active) and 14.6 µM (active)
- IC50 [21]: 29.4 µM (active)
- IC50 [22]: 8.5 µM (active)
- IC50 [23]: 6.84 µM (active)
- IC50 [24]: 0.503 µM (active)
- IC50 [25]: 62 µM (active)
- IC50 [26]: > 50 µM (not active)
- CC50 [27]: > 40 µM (active)
- IC50 [28]: > 10 µM (not active)
- IC50 [29]: 8.35 µM (active)
- IC50 [30]: 8.61 µM (active)
- IC50 [31]: 47.7 µM (active)
- IC50 [32]: > 49.8 µM (not active)
- IC50 [33]: 12.7 µM (active)

SMILES: Oc1nc2ccccc2c(O)c1O
- IC50 [34]: 13.6 µM (not active)

SMILES: N#C/C(=C/c1ccc([N+](=O)[O-])o1)c1nc2ccccc2[nH]1
- EC50 [35]: 3.08 µM (active)

SMILES: CCn1c(C)nc2cc(C(=O)N/N=C(\C)c3ccc(OC)cc3O)ccc21
- EC50 [36]: 9.16 µM (active)
- IC50 [37]: > 50 µM (not active)
- EC50 [38]: 11.2 µM (active)
- EC50 [39]: 12.8 µM (active)
- EC50 [40]: > 100 µM (not active)
